In the supplement of paper PMC10307832:

Key:
Experiment in all cases: relative viability (nuclei count vs DMSO), 5 days (fraction); higher = more cells survive
OSI-027 + Luminespib = compound: COc1cccc2cc(-c3nc([C@H]4CC[C@H](C(=O)O)CC4)n4ncnc(N)c34)[nH]c12 [OSI-027] + CCNC(=O)c1noc(-c2cc(C(C)C)c(O)cc2O)c1-c1ccc(CN2CCOCC2)cc1 [Luminespib] (partner 0.01 µM)
Method in brief: (§1)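 Nuclei were stained with Hoechst during a one-step fixation (final 0.05% Triton X-100, 1% formaldehyde, 1 ug/ml Hoechst) carried out 5 days after dosing, then counted on 4× images. The cells, lung cancer lines in 1536-well plates, had been dosed by pin tool the day after seeding with one drug alone or a fixed anchor-drug dose plus five library-drug doses (not always all listed) in √10 steps. Relative viability is the nuclei count in treated wells divided by that in vehicle wells, and each value is the median of duplicate plates.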

Alpelisib + Luminespib = compound: Cc1nc(NC(=O)N2CCC[C@H]2C(N)=O)sc1-c1ccnc(C(C)(C)C(F)(F)F)c1 [Alpelisib] + CCNC(=O)c1noc(-c2cc(C(C)C)c(O)cc2O)c1-c1ccc(CN2CCOCC2)cc1 [Luminespib] (partner 0.01 µM)
Method in brief: as §1

OSI-027 + Dasatinib = compound: COc1cccc2cc(-c3nc([C@H]4CC[C@H](C(=O)O)CC4)n4ncnc(N)c34)[nH]c12 [OSI-027] + Cc1nc(Nc2ncc(C(=O)Nc3c(C)cccc3Cl)s2)cc(N2CCN(CCO)CC2)n1 [Dasatinib] (partner 0.075 µM)
Method in brief: as §1

OSI-027 + Alpelisib = compound: COc1cccc2cc(-c3nc([C@H]4CC[C@H](C(=O)O)CC4)n4ncnc(N)c34)[nH]c12 [OSI-027] + Cc1nc(NC(=O)N2CCC[C@H]2C(N)=O)sc1-c1ccnc(C(C)(C)C(F)(F)F)c1 [Alpelisib] (partner 2 µM)
Method in brief: as §1

Cell Line	relative viability (OSI-027 + Luminespib; first compound 0.01 µM)	relative viability (OSI-027 + Luminespib; first compound 0.03162 µM)	relative viability (OSI-027 + Luminespib; first compound 0.1 µM)	relative viability (OSI-027 + Luminespib; first compound 0.3162 µM)	relative viability (OSI-027 + Luminespib; first compound 1 µM)	relative viability (Alpelisib + Luminespib; first compound 0.04 µM)	relative viability (Alpelisib + Luminespib; first compound 0.1265 µM)	relative viability (Alpelisib + Luminespib; first compound 0.4 µM)	relative viability (Alpelisib + Luminespib; first compound 1.265 µM)	relative viability (Alpelisib + Luminespib; first compound 4 µM)	relative viability (OSI-027 + Dasatinib; first compound 0.01 µM)	relative viability (OSI-027 + Dasatinib; first compound 0.03162 µM)	relative viability (OSI-027 + Dasatinib; first compound 0.1 µM)	relative viability (OSI-027 + Dasatinib; first compound 0.3162 µM)	relative viability (OSI-027 + Dasatinib; first compound 1 µM)	relative viability (OSI-027 + Alpelisib; first compound 0.01 µM)	relative viability (OSI-027 + Alpelisib; first compound 0.03162 µM)	relative viability (OSI-027 + Alpelisib; first compound 0.1 µM)	relative viability (OSI-027 + Alpelisib; first compound 0.3162 µM)	relative viability (OSI-027 + Alpelisib; first compound 1 µM)
LOU-NH91	0.312	0.308	0.333	0.306	0.315	0.239	0.266	0.311	0.247	0.27	0.533	0.542	0.471	0.407	0.392	0.692	0.689	0.616	0.558	0.47
LU99A	0.25	0.221	0.288	0.22	0.192	0.298	0.216	0.249	0.226	0.247	0.519	0.513	0.486	0.293	0.259	0.486	0.455	0.312	0.193	0.204
LXF-289	0.544	0.612	0.471	0.458	0.258	0.69	0.806	0.619	0.534	0.632	0.175	0.216	0.198	0.182	0.102	1.05	1.05	0.991	0.909	0.496
NCI-H23	–	0.215	0.188	0.203	0.225	0.225	–	0.244	0.201	0.215	0.718	0.899	0.867	0.746	0.46	0.594	0.54	0.632	0.481	0.295
NCI-H322M	0.84	0.831	0.66	0.446	0.369	0.795	0.737	0.789	0.45	0.39	0.252	0.236	0.224	0.233	0.248	0.0629	0.772	0.775	0.539	0.521
NCI-H358	0.384	0.295	0.468	0.41	0.311	0.29	0.23	0.32	0.252	0.215	0.154	0.183	0.158	0.127	0.132	0.98	0.774	0.757	0.478	0.297
NCI-H441	0.367	0.393	0.307	0.235	0.236	0.395	0.324	0.333	0.272	0.312	0.74	0.577	0.706	0.505	0.526	0.716	0.718	0.686	0.636	0.273
NCI-H460	0.0335	0.032	0.0283	0.0249	0.0266	0.0253	0.0415	0.0319	0.0281	0.0206	0.568	0.462	0.37	0.243	0.158	0.541	0.404	0.314	0.168	0.119
NCI-H520	0.258	0.37	0.211	0.168	0.202	0.18	0.203	0.212	0.245	0.216	0.254	0.192	0.143	0.133	0.129	1.11	0.833	0.701	0.41	0.205
NCI-H596	0.96	0.908	0.988	0.851	0.574	0.832	0.884	0.87	0.599	0.424	0.588	0.55	0.606	0.562	0.564	0.432	0.534	0.503	0.503	0.354
NCI-H647	0.153	0.146	0.145	0.149	0.0965	0.256	0.203	0.157	0.117	0.168	0.126	0.14	0.157	0.171	0.071	1.15	1.26	0.914	0.699	0.376
NCI-H650	0.757	0.731	0.749	0.648	0.381	0.752	0.744	0.985	0.559	0.664	0.405	0.464	0.336	0.347	0.311	1.05	1.1	0.749	0.679	0.389
NCI-H661	0.894	0.977	0.846	0.917	0.409	0.979	0.969	1.02	0.928	0.968	0.664	0.989	0.708	0.602	0.383	0.482	0.671	0.41	0.5	0.33
NCI-H727	0.444	0.328	0.381	0.318	0.479	0.419	0.444	0.3	0.371	0.345	0.368	1.04	0.354	0.394	0.339	0.567	0.63	0.491	0.419	0.378
NCI-H838	0.281	0.338	0.336	0.192	0.195	0.429	0.387	0.274	0.221	0.299	0.283	0.276	0.224	0.227	0.239	0.996	0.847	0.632	0.498	0.275
NCI-H1355	0.604	0.582	0.589	0.416	0.406	0.679	0.575	0.83	0.608	0.514	0.718	0.564	0.534	0.409	0.324	0.764	0.723	0.677	0.345	0.24
